Measured values published in article PMC6131539, “Behavioral Effects of a Potential Novel TAAR1 Antagonist” (Frontiers in Pharmacology, 2018).

Assays:
[1] = test system: TAAR1-KO mice; assay: Cocaine-induced locomotor activity, co-injection, TAAR1-KO mice; assay type: in vivo; settings: 5, 15 and 25 mg/kg co-injected with cocaine 10 mg/kg
Experimental: The Taarl^-/- (TAAR1-KO) mice were obtained from Lundbeck ([Wolinsky et al., 2007]). All wild type (WT) and TAAR1-KO mice used for experiments were generated from TAAR1-KO heterozygous mice in a C57BL/6J x 129S1/Sv mixed background.
Experimentally naïve mice, of at least 12 weeks of age, were used for all behavioral experiments. The mice were randomly assigned to treatment or control groups, balanced by sex and weight. Locomotor activity was assessed using the automated locomotor analysis monitors (Omnitech Electronics, Columbus, OH, United States). The apparatus included four open field monitors. Each Open Field monitor consisted of sets of 16 light beams arrayed in the horizontal X and Y axes. The hardware detected beams broken by the animal, which allowed the software to determine the location of the mouse in the cage. Total distance covered by mice was used to characterize locomotor activity of the animals. The monitors were divided into four compartments (20 cm × 20 cm). Animals were tested individually for defined periods with 5-min intervals. The mice were first weighed and then placed into the apparatus, allowing for 30 min habituation. […] The locomotor activity was then measured for additional 1 h. […]
The locomotor activity was assessed for 60 min following the injection. […]

[2] = molecular target: Dopamine Transporter (Homo sapiens, UniProt Q01959); assay: Fluorescent dopamine uptake assay in HEK293 cells stably expressing human HA-DAT; assay type: cell-based; set-up: expressed in transfected cells
Dopamine Transporter, sequence (Q01959 with tags, fused parts or gaps H193Y/G195Y/DEL197-198/G199V/D200P/S201D/S202Y/G203A): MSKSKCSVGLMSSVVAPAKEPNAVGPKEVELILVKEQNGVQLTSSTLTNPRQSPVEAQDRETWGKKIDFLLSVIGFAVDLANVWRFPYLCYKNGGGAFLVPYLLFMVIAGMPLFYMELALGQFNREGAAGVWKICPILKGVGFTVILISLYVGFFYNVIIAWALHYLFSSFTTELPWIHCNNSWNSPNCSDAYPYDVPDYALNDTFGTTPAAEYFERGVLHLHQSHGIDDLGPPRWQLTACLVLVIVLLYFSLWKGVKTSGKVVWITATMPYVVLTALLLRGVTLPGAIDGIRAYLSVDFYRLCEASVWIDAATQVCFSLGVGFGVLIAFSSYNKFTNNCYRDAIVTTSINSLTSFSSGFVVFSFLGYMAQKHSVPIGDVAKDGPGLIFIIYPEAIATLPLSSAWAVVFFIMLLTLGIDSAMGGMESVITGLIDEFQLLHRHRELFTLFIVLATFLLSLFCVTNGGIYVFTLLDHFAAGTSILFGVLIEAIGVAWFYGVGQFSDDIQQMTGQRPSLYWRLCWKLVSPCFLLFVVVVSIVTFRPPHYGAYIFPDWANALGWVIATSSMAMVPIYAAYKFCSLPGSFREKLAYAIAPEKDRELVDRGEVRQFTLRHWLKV
Experimental: Fluorescent dopamine uptake assay kits were purchased from Molecular Devices (Sunnyvale, CA; catalog #: R6138). Stable cells expressing human HA-DAT were seeded on poly-D-lysine treated, black clear-bottom 96-well plates (Corning Catalog #: 3603) at a density of 1 × 10^5 cells/well, and incubated for 24 h prior to the start of the uptake experiment. […] The plates were then incubated for 30 min at 37°C. Following incubation, 100 μL of dye solution was added and fluorescence intensity was measured for 30 min at 37°C using the SpectraMax M3 (Molecular Devices, excitation: 440 nm, emission: 520 nm). The rate of reaction (slope of the curve in the linear range) was taken as the readout for the assay.
Data analyses were performed with Graphpad Prism 5.01 (GraphPad Software, Inc., La Jolla, CA). Linear regression analysis was used to quantify fluorescent dopamine transporter uptake activity. Dose response curves were fitted with non-linear curve fitting. Two-tailed Student’s t-tests or one-way ANOVA analysis with Dunnett’s post hoc correction was used where appropriate to determine differences between data sets.
The ability of compound 22 to directly disrupt uptake activity was assessed with a fluorescent uptake assay.
Error bars represent standard error of mean at N = 3.

For `Clc1ccc(CNCc2ccc(Cn3cncn3)cc2)c(Cl)c1` [compound 22], the “effect on locomotor stimulating effects of cocaine” value [1] was “significantly potentiate”, the “effect on dopamine uptake activity” value ([2]; HEK293 cells stably expressing human HA-DAT, increasing doses) was “no effect on dopamine uptake activity” and the “effect on cocaine dose response inhibition of dopamine uptake” value ([2]; co-treatment with 1, 10 and 100 μM compound 22) was “did not alter”.
